# Assay results from patent publication US10144713B1, “Bis-cyclic guanidines as antibacterial agents” (UNIVERSITY OF SOUTH FLORIDA, priority 2017, dated 2018).
# Columns and labels:
# [1] = system: E. coli (ATCC 25922); experiment: MIC against E. coli; assay type: cell-based; settings: Escherichia coli, ATCC25922; Gram −; 16 h, 37° C.
# Method: (§1) Minimum Inhibitory Concentrations (MICs) Against Bacteria.
# (§2) The antimicrobial activity of the compounds was tested on the following six bacteria strains: K. pneumoniae (ATCC 13383), P. aeruginosa (ATCC27853), E. coli (ATCC 25922), vancomycin-resistant Enterococcus faecalis(ATCC 700802), Methicillin-resistant S. aureus (MRSA, ATCC 33591), Methicillin-resistant S. epidermidis (MRSE, RP62A). The procedures were followed as reported previously (Hancock et al., Immunobiology 2006, 211, 315-322). Briefly, a single colony of each bacterium was inoculated in 3 mL TSB medium and incubated overnight at 37° C. Then the bacteria culture was diluted at 1:100 and the bacteria were allowed to grow to mid-logarithmic phase. Next, 50 μL of 2-fold serial dilutions of compounds (0.1-25 μg/mL) were added the 96-well plate containing aliquots of 50 μL of bacteria suspension (1×10^6 CFU/mL) in each well. The mixture was incubated at 37° C. for 16 h, and their absorption at 600 nm wavelength was read on a Biotek Synergy HT microtiter plate reader. […] The experiments were repeated at least three times with duplicates each time. HC50 means the concentration causing 50% hemolysis.
# [2] = system: Methicillin-resistant S. aureus (MRSA, ATCC 33591); experiment: MIC against MRSA; assay type: cell-based; settings: Staphylococcus aureus; Gram +; 16 h, 37° C.
# Method: as §1, §2
# [3] = system: S. aureus; experiment: Fluorescence microscopy (DAPI/PI) of bacterial membranes, S. aureus; assay type: cell-based; settings: 2 h
# Method: (§3) Fluorescence microscopy studies were conducted to evaluate the ability of compound 12 to compromise membranes of S. aureus (Gram-positive bacterium) and E. coli (Gram-negative bacterium). Fluorescent agent 4′,6-diamidino-2-phenylindole (DAPI) was used to stain membranes of bacterial cells with blue fluorescence regardless of cell viability, and the red fluorescence of propidium iodide (PI) due to the DNA intercalation was used to stain impaired membranes. After MRSA and E. Coli grew to mid-logarithmic phase, the compound 12 was incubated with the bacteria at 37° C. for 2 h. The mixture was then centrifuged at 5000 rpm for 15 min. The cell pellets were washed with the PBS buffer for three times, and incubated with PI ([…]) and DAPI (10 μg/mL) for 15 min sequentially on ice in the dark. The mixture was then centrifuged and the pellets were washed with the PBS buffer. Next, 10 μL of the samples were placed on chamber slides and observed under Zeiss Axio Image Zloptical microscope using 100× oil-immersion objective.
# [4] = system: E. coli; experiment: Fluorescence microscopy (DAPI/PI) of bacterial membranes, E. coli; assay type: cell-based; settings: 10 μg/mL, 2 h, 37° C.
# Method: as §3
# [5] = system: MRSA; experiment: Drug-resistance study, 14 passages, MRSA; assay type: cell-based, S. aureus; settings: half-MIC exposure, 14 successive passages
# Method: (§4) Bacterial resistance tests were conducted using compound 12. The compound was incubated with either MRSA or E. Coli in the well at the concentration of half-MIC (½ MIC, 10^6 CFU/ml) every day and tested for their activity through 14 successive passages.
# [6] = system: E. coli; experiment: Drug-resistance study, 14 passages, E. coli; assay type: cell-based; settings: half-MIC exposure, 14 successive passages
# Method: as §4
# [7] = system: MRSA biofilm; experiment: Biofilm formation inhibition (crystal violet), MRSA; assay type: cell-based, S. aureus
# Method: Bacteria in biofilms are known to tolerate antibiotic treatment and are thus more difficult to eradicate than planktonic cells. Biofilms formed by MRSA and E. coli have frustrated the treatment of persistent bacterial infections. Compound 12 was evaluated for its ability to inhibit biofilm formation of MRSA and E. coli. Overnight grown bacteria were inoculated into fresh 10% of MHII broth at a ratio of 1:100. 100 μL of inoculated culture was incubated with appropriated amounts of compound 12 in wells of 96-well plate. The plate was incubated at 37° C. for overnight. Optical density of each well was recorded at the wavelength of 600 nm and then the biofilm biomass was recorded by the crystal violet method. Biofilm biomass was presented as CV OD/OD of growth. Relative biofilm biomass values were normalized by the biomass value of control (no addition of compound). Experiments were conducted in triplicate and the data were presented as mean±STDEV.
# [8] = system: S. aureus ATCC 33591; experiment: Thigh burden infection model in neutropenic mice; assay type: in vivo, CD-1 female mice; settings: 5 mg/kg i.v. at 1 and 7 h after infection, thighs harvested at 25 h
# Method: Neutropenic mice (n=4 per group) were inoculated in the posterior thigh muscles with S. aureus ATCC 33591 at 1×10^6 CFU per thigh and then treated with compounds 11 and 12 (5 mg/kg per dose) by i.v. bolus injection in the tail vein at 1 and 7 h after infection.
# A thigh burden model was employed to evaluate the in vivo anti-infective activity of compounds 11 and 12, in which the thigh muscle of neutropenic mice was inoculated with S. aureus, followed by intravenous (i.v.) administration of corresponding compounds. All protocols and methods associated with animal experiments were approved by University of South Florida (USF) Institutional Animal Care and Use Committee. The in vivo experiment on the mouse model of the thigh burden infection with MRSA was conducted adapted from previously reported protocol. The CD-1 female mice which were 6 to 8 weeks old and around 25 g in weights were used for the study. Neutropenic Mice were induced by injecting cyclophosphamide (150 mg/kg) intraperitoneally twice at 4 and 1 days before bacterial inoculation. One MRSA colony from tryptic soy agar (TSA) cultures was allowed to grow in tryptic soy broth (TSB) overnight at 37° C., then 100 μL culture was withdrawn and diluted with TSB to a total volume of 4 mL, which was subsequently incubated at 37° C. for another 6 h. […] The formed colonies were counted to calculate CFU per thigh.
structure (smiles),measurement,setting,value
CCCCCCN1C(=N)N(CC(=O)Nc2cccc(NC(=O)CN3C[C@H](Cc4ccccc4)N(CCCCCC)C3=N)c2)C[C@@H]1Cc1ccccc1 [Compound 12],MIC,[1],0.75 µg/mL
same,MIC,[2],0.16 µg/mL
same,membrane integrity of S. aureus (PI red fluorescence),"[3]; 10 μg/mL, 37° C.",disrupted
same,aggregation of S. aureus,[3]; in the presence of compound,significant aggregation
same,membrane integrity of E. coli (PI red fluorescence),[4],disrupted
same,MIC after 14 passages,[5],virtually constant
same,MIC after 14 passages,[6],virtually constant
same,inhibition of biofilm formation,[7]; 0.39 μg/mL,completely eradicated
same,inhibition at 0.19 µg/mL,"[7]; Staphylococcus aureus, 0.19 μg/mL",85%
same,decrease in colony-forming unit (CFU) per thigh,[8],5 log10 CFU
